pEC50: −log10 of the molar value.
Target: Solute carrier family 2, facilitated glucose transporter member 9 (Homo sapiens) (UniProt Q9NRM0)
Assay: GLUT9 transporter activity via membrane potential – cell-based, membrane potential dye, HEK-293, SLC2A9 overexpression, dose response (AID 1794831)
Conditions: HEK-293 SLC2A9 OE, FLIPR membrane potential dye

Solute carrier family 2, facilitated glucose transporter member 9 (Homo sapiens), sequence (Q9NRM0 whole entry, looked up): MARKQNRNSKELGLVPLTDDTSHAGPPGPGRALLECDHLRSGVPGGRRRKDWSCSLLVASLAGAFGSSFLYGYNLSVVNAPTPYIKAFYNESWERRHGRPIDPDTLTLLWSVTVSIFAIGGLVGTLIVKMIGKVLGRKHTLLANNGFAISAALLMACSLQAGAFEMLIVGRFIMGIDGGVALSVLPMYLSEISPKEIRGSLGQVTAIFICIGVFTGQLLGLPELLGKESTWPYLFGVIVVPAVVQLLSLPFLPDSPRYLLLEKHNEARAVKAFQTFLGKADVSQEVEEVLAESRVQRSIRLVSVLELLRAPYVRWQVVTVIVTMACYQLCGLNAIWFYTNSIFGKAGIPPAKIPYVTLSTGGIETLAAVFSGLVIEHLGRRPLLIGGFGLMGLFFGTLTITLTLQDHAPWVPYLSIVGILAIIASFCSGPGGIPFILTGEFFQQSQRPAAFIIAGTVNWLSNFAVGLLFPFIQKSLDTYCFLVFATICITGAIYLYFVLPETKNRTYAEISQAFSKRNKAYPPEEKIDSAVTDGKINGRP

Row | Structure (SMILES) | pEC50
1 | O=c1[nH]c(=O)c2[nH]c(=O)[nH]c2[nH]1 | 3.52
2 | O=C(O)c1cc(=O)[nH]c(=O)[nH]1 | 3.00

Reference: PubChem BioAssay AID1794831
